The results in this text go back to patent US9675623B2, “Non-surgical method of treatment for cataract” (THE REGENTS OF THE UNIVERSITY OF MICHIGAN, priority 2012, dated 2017).

The target in assay [1] is T1, R120G cryAB (Homo sapiens, UniProt P02511, R120G).
T1 sequence (P02511 1-175 R120G): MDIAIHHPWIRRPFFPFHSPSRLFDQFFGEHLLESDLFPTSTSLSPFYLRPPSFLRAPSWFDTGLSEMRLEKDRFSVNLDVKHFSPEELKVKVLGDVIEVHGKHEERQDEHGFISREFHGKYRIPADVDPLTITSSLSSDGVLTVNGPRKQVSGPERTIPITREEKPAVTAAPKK
The assay is described as follows: Differential scanning fluorimetry (DSF), shift of apparent Tm. The assay is classed as binding. Conditions: DSF with R120G cryAB; for ACTIVITY (shift in thermal stability at 100 μM): 100 μM compound. The protocol: Differential scanning fluorimetry (DSF) was utilized to identify compounds that stabilize cryAB. In DSF experiments, the melting transition (Tm) of the protein target is measured in the presence of potential ligands (Cummings et al., J Biomol Screen 11, 854 (2006). DSF measures thermal unfolding of the target protein via the fluorescence of intrinsic tryptophans, or (more commonly) a dye, such as 1,8-anilinonapthalenesulfonic (bis-ANS) or Sypro Orange. Binding of a ligand adds free energy to the folded state or key intermediates, which limits unfolding and shifts the apparent Tm. These values are used to calculate the unfolding transition. When compounds bind to the target prior to heating, they stabilize against unfolding, shifting the ΔTm. […] (3).
For orientation: In DSF a fluorescence change marks the thermal transition of the protein.

Assay [2] concerns the target T1, R120G cryAB. The assay is described as follows: Biolayer interferometry (Octet Red). To be noted: biotinylated cryAB on streptavidin-coated pins, equilibrium association data. The format is binding. The protocol: Measuring affinity for the test protein by biolayer interferometry (Octet Red) allows for the identification of false positives. Briefly, biotinylated cryAB is immobilized to streptavidin-coated pins and equilibrium association data across a hundred-fold concentration range is analyzed to generate the apparent KD. To control for nonspecific binding, the response of a biocytin-blocked pin is subtracted from each sensorgram.
A general note: In BLI a coated tip is dipped into the sample, and binding shifts an interference pattern.

Assay [3] has as its target T1, R120G cryAB. Description: Amyloid formation / aggregation measured by electron microscopy and visual inspection. The assay is classed as biochemical. The protocol:
To test this idea, R120G cryAB (15 μM) was treated with 5-cholesten-3b,25-diol or cholesterol (100 μM) and its ability to aggregate was measured by electron microscopy.

The target in assay [4] is T1, R120G cryAB. The assay is described as follows: 15N HSQC NMR binding site mapping. To be noted: 15N HSQC NMR chemical shifts.
Assay [5] concerns the target T2, cryAB (Mus musculus, UniProt P23927, R120G).
T2 construct: from tissue; host or cells: excised eyes of R120G cryAB knock-in mice
T2 sequence (P23927 1-175 R120G): T1 sequence (P02511 1-175 R120G) with P39S, S41A, F61I, T170A
Description: Excised eyes from R120G cryAB knock-in mice treated with compound. To be noted: 100 μM, versus saline control. The protocol:
The R120G cryAB knock-in mouse is a clinically-acceptable model of aging-associated and hereditary cataract. The animal model develops severe cataracts within 20 weeks (Andley et al., PLoS One 6, e17671 (2011)). Excised eyes from these mice were treated with 5-cholesten-3b,25-diol (100 μM) or a saline control.

The subject of assay [6] is R120G cryAB knock-in mice. The assay is described as follows: Eye drops to live R120G cryAB knock-in mice; slit lens illumination and GPC/light scattering of lens homogenates. The format is in vivo, mouse. To be noted: 5 mM in saline-cyclodextrin, eye dropper three times a week for two weeks.
In assay [7] the test system is α-crystallin. The assay is described as follows: Gel filtration (GPC) analysis of α-crystallin solubility, treated versus fellow untreated eye. The assay is classed as in vivo, mice. The protocol: 5-cholesten-3b,25-diol formulated in a saline-cyclodextrin solution (5 mM cyclodextran; 5 mM 5-cholesten-3b,25-diol) was delivered by eye dropper three times a week for two weeks to live mice (n=15). Gel filtration analysis of α-crystallin solubility was conducted by processing samples as previously described by Andley et al. (PLoS ONE, 6:3, 1-13 (2011)). Briefly, degree of aggregation of α-crystallin was determined using gel permeation chromatography (GPC) with light scattering and refractive index (RI) measurements. All data were analyzed using SAS version 9.3 (SAS Institute; Cary, N.C.). To control for differences in assay sensitivity among animals, the area under the curve for α-crystallin in the drug treated eye was compared to the area under the curve generated from the fellow untreated eye and expressed as “percent” difference in area using the untreated eye as the denominator. The percent difference between treated and untreated eyes was compared using the Wilcoxon signed rank test for the null hypothesis of no difference. The association between age and percent difference was calculated using the Spearman rank correlation coefficient. Non-parametric statistical models were used to protect from departures from normality.

The mark [8] stands for this setting: R120G cryAB 15 μM, compound 100 μM.

Structures are written as SMILES. Substitutions are numbered along the chain they refer to. Several values for one entry are separate records, joined by “and”; a condition that tells them apart may be missing. Equal values may be shown once.

Regarding `C[C@H](CCCC(C)(C)O)[C@H]1CC[C@H]2[C@@H]3CC=C4C[C@@H](O)CC[C@]4(C)[C@H]3CC[C@]12C` [5-cholesten-3b,25-diol], the “ACTIVITY (shift in thermal stability at 100 μM)” value in assay [1] is −2.0 °C. The Kd (in general, the equilibrium constant for the complex coming apart) in assay [2] came out at 10.1 ± 4.4 µM. In assay [3] (setting [8]), the “amyloid formation (electron microscopy)” value is “dramatically suppressed amyloid formation”. In addition, the “opacity of the R120G cryAB mixture (visual inspection)” value in assay [3] (setting [8]) is “reduced the opacity”. Also, in assay [3] (pre-formed amyloids), the “aggregation of pre-formed R120G cryAB amyloids” value is given as “reversed the aggregation”. For the same compound, the “binding site on R120G cryAB” value in assay [4] is given as “binds a groove across the cryAB dimer interface”. For the same compound, the “aggregation of cryAB” value in assay [5] is given as “significantly reduced the aggregation of cryAB”. Also, the cryAB solubility entry is recorded as “improved cryAB solubility” in assay [5] and “significantly improved cryAB solubility” in assay [6]. For the same compound, the lens transparency result in assay [6] is listed as “improved lens transparency”. Also, the “rescued cataract phenotypes (treated mice)” value in assay [6] is on record as 10/15. The “Percent difference in area between untreated and treated eyes, Mean” value in assay [7] (Age 66 days) stood at 177.2%; in assay [7] (Age 79 days), 98.1%; in assay [7] (Age 184 days) it was 61.4%; in assay [7] (Age 192 days), 22.7%; in assay [7] (Age 200 days), 38.7%; in assay [7] (Age 266 days), 1376.3%. In addition, the “Percent difference in area between untreated and treated eyes, Mean” value in assay [7] (All ages) was 381.2±974.6% and 381.2%. Also, the “Percent difference in area between untreated and treated eyes, Median” value in assay [7] (Age 66 days) is listed as −20.2%; in assay [7] (Age 79 days), 98.1%; in assay [7] (Age 184 days), 61.4%; in assay [7] (Age 192 days) it was 55.8%; in assay [7] (Age 200 days) it was 31.8%; in assay [7] (Age 266 days) it was 679.0%. Moreover, the “Percent difference in area between untreated and treated eyes, Median” value in assay [7] (All ages) is reported as 63.3%. In assay [7] (eye drops 5 mM three times a week for two weeks, Wilcoxon signed rank), the “area under the curve of α-crystallin, drug treated eyes versus fellow untreated eyes” value is listed as “statistically significantly higher”.
On to `CC(C)CCC[C@@H](C)[C@H]1CC[C@H]2[C@@H]3CC=C4C[C@@H](O)CC[C@]4(C)[C@H]3CC[C@]12C` [5-cholesten-3b-ol], for which the “ACTIVITY (shift in thermal stability at 100 μM)” value in assay [1] is −1.1 °C.
In the case of `CC(C)CCC[C@@H](C)[C@H]1CC[C@H]2[C@@H]3CC[C@H]4C[C@@H](O)CC[C@]4(C)[C@H]3CC[C@]12C` [5a-cholestan-3b-ol-6-one, (2R,5S,7S,15R)-5-hydroxy-2,15-dimethyl-14-(6-methylheptan-2-yl)tetracyclo [8.7.0.0^{2,7}.0^{11,15}] heptadecan-8-one], the “ACTIVITY (shift in thermal stability at 100 μM)” value in assay [1] was −3.0 °C.
As for `CC(C)CCC[C@@H](C)[C@H]1CC[C@H]2[C@@H]3CC=C4C[C@@H](O)CC[C@]4(C)[C@H]3CC[C@]12C` [cholesterol, reference compound], the “activity in DSF” value in assay [1] (focused sterol collection) is “inactive”. The “amyloid formation (electron microscopy)” value in assay [3] (setting [8]) was “not”.
`C[C@]12CCC(=O)C[C@H]1CC[C@@H]1[C@@H]2CC[C@]2(C)[C@@H](O)CC[C@@H]12` [etiocholan-17b-ol-3-one]: in assay [1], the “ACTIVITY (shift in thermal stability at 100 μM)” value is “+1.7 °C”.
